Results published in patent US6355799B1, “Substituted benzene compounds, process for their preparation, and herbicidal and defoliant compositions containing them” (ISK Americas Incorporated, priority 1997, dated 2002).

Legend:
Format in all cases: in vivo
[1] = system: large crabgrass (Digitaria sanguinalis, DIGSA); test: Pre-emerge test, greenhouse herbicide activity screening; details: pre-emerge, rated 14 days after application, 0 = no damage, 100 = complete death
Method in brief: (§1)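 Compounds in acetone were track-sprayed at 15–1000 g ai/ha: pre-emergence onto soil sown the previous day, then top-watered to incorporate and later bottom-watered; post-emergence onto 2–3 leaf plants with 0.25% v/v surfactant, bottom-watered only. Ratings on a 0–100 phytotoxicity scale were taken at day 14.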

[2] = system: ivyleaf morningglory (Ipomoea hederacea, IPOHE); test: as above; details: pre-emerge, rated 14 days after application, 0 = no damage, 100 = complete death
Method in brief: as §1

[3] = system: common ragweed (Ambrosia artemisizfolia L., AMBEL); test: as above; details: pre-emerge, rated 14 days after application, 0 = no damage, 100 = complete death
Method in brief: as §1

[4] = system: green foxtail (Setaria viridis, SETVI); test: as above; details: pre-emerge, rated 14 days after application, 0 = no damage, 100 = complete death
Method in brief: as §1

[5] = system: velvetleaf (Abutilon theophrasti, ABUTH); test: as above; details: pre-emerge, rated 14 days after application, 0 = no damage, 100 = complete death
Method in brief: as §1

[6] = system: johnsongrass (Sorghum halepense, SORHA); test: as above; details: pre-emerge, rated 14 days after application, 0 = no damage, 100 = complete death
Method in brief: as §1

[7] = system: sicklepod (Cassia obtusifolia, CASOB); test: as above; details: pre-emerge, rated 14 days after application, 0 = no damage, 100 = complete death
Method in brief: as §1

[8] = system: lambsquarters (Chenopodium album, CHEAL); test: as above; details: pre-emerge, rated 14 days after application, 0 = no damage, 100 = complete death
Method in brief: as §1

[9] = system: barnyardgrass (Echinochloa crus-galli, ECHCG); test: as above; details: pre-emerge, rated 14 days after application, 0 = no damage, 100 = complete death
Method in brief: as §1

[10] = system: upland rice (Oryza sp., var. Tebonnet, RICE); test: Pre-emerge test, crop safety; details: pre-emerge, rated 14 days after application, 0 = no damage, 100 = complete death
Method in brief: (§2)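 Herbicidal damage is scored 0 (none) to 100 (complete plant death) two weeks after a simulated field spray. Rates span 15–1000 g ai/ha, delivered in acetone at 187 l/ha. For post-emergence treatments, plants have 2–3 leaves and the spray carries 0.25% v/v non-ionic surfactant.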

[11] = system: field corn (Zea mays L., var. Dekalb 535, CORN); test: Pre-emerge test, crop safety; details: pre-emerge, rated 14 days after application, 0 = no damage, 100 = complete death
Method in brief: as §2

[12] = system: large crabgrass (Digitaria sanguinalis, DIGSA); test: Post-emerge test, greenhouse herbicide activity screening; details: phytotoxicity rating 0-100 (0 no damage, 100 complete death), 14 days after application
Method in brief: (§3)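 Plants grown in 10 cm pots of sandy loam mix received acetone-dissolved compounds through a moving flat-fan nozzle. Doses ranged from 15 to 1000 g ai/ha. Pre-emerge pots were seeded one day earlier, post-emerge pots 8–21 days earlier. Fourteen days on, each pot was graded 0–100 for damage.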

[13] = system: ivyleaf morningglory (Ipomoea hederacea, IPOHE); test: as above; details: phytotoxicity rating 0-100 (0 no damage, 100 complete death), 14 days after application
Method in brief: as §3

[14] = system: common ragweed (Ambrosia artemisizfolia L., AMBEL); test: as above; details: phytotoxicity rating 0-100 (0 no damage, 100 complete death), 14 days after application
Method in brief: as §3

[15] = system: green foxtail (Setaria viridis, SETVI); test: as above; details: phytotoxicity rating 0-100 (0 no damage, 100 complete death), 14 days after application
Method in brief: as §3

[16] = system: velvetleaf (Abutilon theophrasti, ABUTH); test: as above; details: 63 g ai/ha; phytotoxicity rating 0-100 (0 no damage, 100 complete death), 14 days after application
Method in brief: as §3

[17] = system: johnsongrass (Sorghum halepense, SORHA); test: as above; details: phytotoxicity rating 0-100 (0 no damage, 100 complete death), 14 days after application
Method in brief: as §3

[18] = system: redroot pigweed (Amaranthus retroflexus, AMARE); test: as above; details: phytotoxicity rating 0-100 (0 no damage, 100 complete death), 14 days after application
Method in brief: as §3

[19] = system: sicklepod (Cassia obtusifolia, CASOB); test: as above; details: phytotoxicity rating 0-100 (0 no damage, 100 complete death), 14 days after application
Method in brief: as §3

[20] = system: lambsquarters (Chenopodium album, CHEAL); test: as above; details: phytotoxicity rating 0-100 (0 no damage, 100 complete death), 14 days after application
Method in brief: as §3

[21] = system: barnyardgrass (Echinochloa crus-galli, ECHCG); test: as above; details: phytotoxicity rating 0-100 (0 no damage, 100 complete death), 14 days after application
Method in brief: as §3

[22] = system: upland rice (Oryza sp., var. Tebonnet, RICE); test: Post-emerge test, crop safety; details: phytotoxicity rating 0-100 (0 no damage, 100 complete death), 14 days after application
Method in brief: (§4)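 Rating: 0–100 visual injury, 14 DAA. Application: acetone, 187 l/ha, 15–1000 g ai/ha, flat-fan track sprayer with nozzle 40–45 cm above soil or canopy. Post-emerge runs used 0.25% v/v surfactant on 2–3 leaf plants.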

[23] = system: field corn (Zea mays L., var. Dekalb 535, CORN); test: Post-emerge test, crop safety; details: phytotoxicity rating 0-100 (0 no damage, 100 complete death), 14 days after application
Method in brief: as §4

[24] = system: redroot pigweed (Amaranthus retroflexus, AMARE); test: Pre-emerge test, greenhouse herbicide activity screening; details: pre-emerge, rated 14 days after application, 0 = no damage, 100 = complete death
Method in brief: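 Sandy loam pots; pre-emerge: sown 1 d pre-spray, surface-watered after, then bottom-watered. Post-emerge: sown 8–21 d before, 2–3 leaf stage, + 0.25% v/v NIS, bottom-watered. Acetone, 187 l/ha track spray, 15–1000 g ai/ha. 0–100 injury score, day 14.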

COc1c(Cl)cc(F)c(-n2c(=O)cc(C(F)(F)F)n(C)c2=O)c1N1CCCC1 [Compound 1-32]
95: Pre-emerge Herbicidal Activity ECHCG (phytotoxicity rating, scale 0-100) ([9]; 250 g ai/ha)
40: Pre-emerge Herbicidal Activity CASOB (phytotoxicity rating, scale 0-100) ([7]; 63 g ai/ha) | Pre-emerge Herbicidal Activity CASOB (phytotoxicity rating, scale 0-100) ([7]; 250 g ai/ha) | Pre-emerge crop damage RICE (phytotoxicity rating, scale 0-100) ([10]; 250 g ai/ha)
0: Pre-emerge Herbicidal Activity DIGSA (phytotoxicity rating, scale 0-100) ([1]; 63 g ai/ha) | Pre-emerge Herbicidal Activity IPOHE (phytotoxicity rating, scale 0-100) ([2]; 63 g ai/ha) | Pre-emerge Herbicidal Activity AMBEL (phytotoxicity rating, scale 0-100) ([3]; 63 g ai/ha) | Pre-emerge Herbicidal Activity SETVI (phytotoxicity rating, scale 0-100) ([4]; 63 g ai/ha) | Pre-emerge Herbicidal Activity SORHA (phytotoxicity rating, scale 0-100) ([6]; 63 g ai/ha) | Pre-emerge Herbicidal Activity ECHCG (phytotoxicity rating, scale 0-100) ([9]; 63 g ai/ha) | Pre-emerge crop damage CORN (phytotoxicity rating, scale 0-100) ([11]; 63 g ai/ha) | Pre-emerge crop damage CORN (phytotoxicity rating, scale 0-100) ([11]; 250 g ai/ha) | Post-emerge Herbicidal Activity DIGSA ([12]; 63 g ai/ha) | Post-emerge Herbicidal Activity DIGSA ([12]; 250 g ai/ha) | Post-emerge Herbicidal Activity IPOHE ([13]; 63 g ai/ha) | Post-emerge Herbicidal Activity AMBEL ([14]; 63 g ai/ha) | Post-emerge Herbicidal Activity SETVI ([15]; 63 g ai/ha) | Post-emerge Herbicidal Activity SETVI ([15]; 250 g ai/ha) | Post-emerge Herbicidal Activity SORHA ([17]; 63 g ai/ha) | Post-emerge Herbicidal Activity SORHA ([17]; 250 g ai/ha) | Post-emerge Herbicidal Activity CASOB ([19]; 63 g ai/ha) | Post-emerge Herbicidal Activity CASOB ([19]; 250 g ai/ha) | Post-emerge Herbicidal Activity CHEAL ([20]; 63 g ai/ha) | Post-emerge Herbicidal Activity ECHCG ([21]; 63 g ai/ha) | Post-emerge Herbicidal Activity ECHCG ([21]; 250 g ai/ha) | Post-emerge Herbicidal Activity RICE (crop damage) ([22]; 63 g ai/ha) | Post-emerge Herbicidal Activity RICE (crop damage) ([22]; 250 g ai/ha) | Post-emerge Herbicidal Activity CORN (crop damage) ([23]; 63 g ai/ha) | Post-emerge Herbicidal Activity CORN (crop damage) ([23]; 250 g ai/ha) | Pre-emerge Herbicidal Activity AMARE (phytotoxicity rating, scale 0-100) ([24]; 63 g ai/ha)
60: Post-emerge Herbicidal Activity CHEAL ([20]; 250 g ai/ha)
50: Pre-emerge Herbicidal Activity IPOHE (phytotoxicity rating, scale 0-100) ([2]; 250 g ai/ha) | Pre-emerge Herbicidal Activity AMBEL (phytotoxicity rating, scale 0-100) ([3]; 250 g ai/ha)
30: Pre-emerge Herbicidal Activity SORHA (phytotoxicity rating, scale 0-100) ([6]; 250 g ai/ha) | Post-emerge Herbicidal Activity AMBEL ([14]; 250 g ai/ha) | Post-emerge Herbicidal Activity ABUTH [16] | Post-emerge Herbicidal Activity AMARE ([18]; 250 g ai/ha)
100: Pre-emerge Herbicidal Activity DIGSA (phytotoxicity rating, scale 0-100) ([1]; 250 g ai/ha) | Pre-emerge Herbicidal Activity SETVI (phytotoxicity rating, scale 0-100) ([4]; 250 g ai/ha) | Pre-emerge Herbicidal Activity ABUTH (phytotoxicity rating, scale 0-100) ([5]; 250 g ai/ha) | Pre-emerge Herbicidal Activity CHEAL (phytotoxicity rating, scale 0-100) ([8]; 250 g ai/ha) | Pre-emerge Herbicidal Activity AMARE (phytotoxicity rating, scale 0-100) ([24]; 250 g ai/ha)
10: Post-emerge Herbicidal Activity AMARE ([18]; 63 g ai/ha)
70: Post-emerge Herbicidal Activity IPOHE ([13]; 250 g ai/ha)
20: Pre-emerge crop damage RICE (phytotoxicity rating, scale 0-100) ([10]; 63 g ai/ha)
90: Pre-emerge Herbicidal Activity ABUTH (phytotoxicity rating, scale 0-100) ([5]; 63 g ai/ha) | Pre-emerge Herbicidal Activity CHEAL (phytotoxicity rating, scale 0-100) ([8]; 63 g ai/ha)
